Source: BigSolDB 2.1

CO/N=C(\C(=O)O)c1csc(N)n1
Details	solubility (mole fraction)
in ethanol, 283.12 K	6.9e-05
in ethanol, 288.42 K	8.31e-05
in ethanol, 293.23 K	0.000101
in ethanol, 298.17 K	0.000124
in ethanol, 303.33 K	0.000151
in ethylene glycol, 283.11 K	0.00129
in ethylene glycol, 288.68 K	0.00152
in ethylene glycol, 293.41 K	0.00175
in ethylene glycol, 298.26 K	0.002
in ethylene glycol, 303.46 K	0.0023
in methanol, 283.75 K	0.000293
in methanol, 288.17 K	0.000334
in methanol, 293.36 K	0.00038
in methanol, 298.26 K	0.00043
in methanol, 303.1 K	0.000489
in n-propanol, 282.85 K	2.14e-05
in n-propanol, 288.05 K	2.49e-05
in n-propanol, 293.09 K	3.1e-05
in n-propanol, 298.3 K	4.25e-05
in n-propanol, 303.08 K	5.94e-05
in water, 283.67 K	0.000356
in water, 288.48 K	0.000416
in water, 293.22 K	0.000483
in water, 298.36 K	0.000557
in water, 303.22 K	0.000637
